The record followed here is patent US6956030B2, “Use of mometasone furoate for treating upper airway diseases” (Schering Corporation, priority 1994, dated 2005).

One data set deals with plasma cortisol. Nature of the data set: Phase I rising single-dose study, aqueous nasal spray suspension, 24-hour plasma cortisol. Type of data set: in vivo, healthy male volunteers. Particulars: intranasal single doses 1000, 2000 and 4000 mcg at 11 pm. The procedure:
Several Phase I studies have been completed using the aqueous nasal spray suspension formulation of mometasone furoate monohydrate. In a randomized, third party-blinded, placebo-controlled rising single-dose safety and tolerance study, the aqueous nasal spray suspension formulation was administered to eight healthy male volunteers. Doses were administered at 11 pm, and plasma cortisol concentrations were measured during the following 24-hour period.

For the next data set, the system named is cortisol secretion. Kind of data set: Multiple dose 28-day study, aqueous nasal spray, cortisol secretion. Type of data set: in vivo, normal male volunteers. The note with it: intranasal 400 or 1600 mcg/day, 28 days. An excerpt:
In a follow-up multiple dose study, 48 normal male volunteers were empaneled in a randomized, third party-blinded, placebo and active-controlled parallel group study. Twelve volunteers in each of four groups received one of the following treatments for 28 days: A) Intranasal aqueous nasal spray suspension formulation of mometasone furoate monohydrate, 400 mcg/day; B) Intranasal aqueous nasal spray suspension formulation of mometasone furoate monohydrate, 1600 mcg/day; C) Intranasal placebo; D) Oral prednisone, 10 mg/day. All treatments were administered as once daily dosing in the morning.

Data set [1] relates to symptomatic patients with seasonal allergic rhinitis. Nature of the data set: Onset of clinical efficacy study, nasal spray, 14 days, total nasal symptom score. Type of data set: in vivo. The procedure:
The study lasted 14 days in length. Data from 201 patients were used for analysis. a. Signs and symptoms were individually scored by the patient on the diary card, and by the investigator or designee at Screening and Baseline (Day 1), Day 4, Day 8, and Day 15 after treatment. All symptoms (nasal and non-nasal) were rated by the investigator or designee according to the following scale: The overall condition of rhinitis was evaluated by the investigator or designee and patient at the same time as symptoms, and scored according to the following criteria: 3. Drug—Each patient was given a metered nasal pump spray bottle containing either an aqueous suspension of mometasone furoate or placebo. […] After the Baseline visit, each patient was instructed to enter into his/her diary the information about the time of onset of nasal relief and level of nasal symptom relief as no relief, slight, moderate, marked, or complete. At Baseline and each follow-up visit, the physician evaluated the following signs and symptoms of allergic rhinitis, scored as 0=none, 1=mild, 2=moderate, 3=severe. • a. NASAL SYMPTOMS • nasal discharge • congestion/stuffiness • sneezing • itching • b. […] At each follow-up visit post Baseline, the physician and patient evaluated the therapeutic response as 5=no relief, 4=slight relief, 3=moderate relief, 2=marked relief, 1=complete relief. After the Baseline visit, each morning and evening the patient completed a diary to assess the 8 signs and symptoms of allergic rhinitis as described above. The primary efficacy results are based on a survival analysis of the onset times of relief (defined as the first time patient experienced at least moderate relief of nasal symptoms) for the mometasone furoate nasal spray and placebo groups. In this analysis, patients reporting slight or no relief for the first 3 days after treatment were censored at Day 3. Also, results from the patient regular diary (by 15-day average) data were evaluated. Data from 201 patients were used in the survival analysis.

Data set [2] is described as follows: Aqueous suspension once-a-day in allergic rhinitis (summary statement). Type of data set: in vivo. An excerpt:
In treating allergic and non-allergic rhinitis, the aqueous suspension of mometasone furoate may be administered intranasally by inserting an appropriate device (such as the pump spray bottle used to deliver […]® Nasal Spray as well as the spray bottle disclosed in the Schering Corporation Industrial Design Deposit DM/026304 registered Jun. 1, 1993) into each nostril. Active drug is then expelled (nasal spray device) or could be nasally inhaled (sniffed) as a powder. Efficacy is generally assessed in a double blind fashion by a reduction in nasal symptoms (e.g., sneezing, itching, congestion, and discharge). Other objective measurements (e.g., nasal peak flow and resistance) can be used as supportive indices of efficacy. For treatment of allergic and/or inflammatory diseases of the lower airways and lung parenchyma especially diseases such as asthma, chronic obstructive pulmonary disease (“COPD”), granulomatus diseases of the lungs and lower airway passage, non-malignant proliferative disease of the lungs e.g., idiopathic pulmonary fibrosis, hypersensitivity pneumonitis and bronchopulmonary dysplasia the following dosage ranges of mometasone furoate may be used: […] Typically 2-4 mL of the aqueous suspension of mometasone furoate monohydrate may be placed in a plastic nebulizer container and the patient would inhale for 2-10 minutes.

Regarding `C[C@@H]1C[C@H]2[C@@H]3CCC4=CC(=O)C=C[C@]4(C)[C@@]3(Cl)[C@@H](O)C[C@]2(C)[C@@]1(OC(=O)c1ccco1)C(=O)CCl` [mometasone furoate], in the data set on plasma cortisol, the “effect on 24-hour area under the curve plasma cortisol profile (AUC 0-24) compared to placebo” value is “did not significantly affect”. In addition, in the data set on cortisol secretion, the “cortisol secretion compared to placebo” value was “Neither of the 2 doses of the mometasone furoate aqueous nasal spray formulation were associated with any changes in cortisol secretion” and the tolerability result is “well tolerated”. The “reduction in total nasal symptom score from baseline” value in data set [1] (morning & evening averaged diary, 15-days average) is listed as “statistically significantly higher than that for the placebo group”. Further, the “median onset time to relief (at least moderate relief of nasal symptoms)” value in data set [1] (nasal spray 200 mcg once-a-day, survival analysis, placebo 72 hours, log-rank p<0.001) was determined as 35.9 h. The “patients who recorded slight or no relief (censored) at Day 3” value in data set [1] (of 101 patients, placebo 50 of 100) turned out to be 24 patients. In data set [2] (25 up to 1600 micrograms once-a-day), the “safety and efficacy in allergic rhinitis” value is “safe and effective”. For the same compound, the “dose dependence of treatment effect” value in data set [2] (once-a-day) is reported as “no improvement in treatment is typically found above 400 micrograms a day”.
